In patent US20260297060A1, “COMPOUNDS FOR THE DEGRADATION OF MUTANT BRAF” (C4 THERAPEUTICS, INC., priority 2023, published 2026):
Like-named read-outs stand apart in the source and are kept apart here.

Molecular target: T1, BRAF V600E (Homo sapiens, UniProt P15056+Q96SW2, V600E)
T1 construct: knock-in of the HiBiT tag to the endogenous BRAF V600E locus; host or cells: A375.10 (A375 clonal line, CRISPR HiBiT knock-in at the endogenous BRAF V600E locus)
Test: BRAF V600E HiBiT Degradation Assay
Assay type: cell-based
Procedure, shortened: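 Endogenous HiBiT knock-in on BRAF V600E in A375 cells (clone A375.10); 11-point half-log series, top 10 μM, 2, 6 or 24 h at 37° C. Lytic HiBiT luminescence, background-subtracted, normalized to DMSO; 4-parameter fit gives DC50, Emax (residual protein) and IP (inflection point).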

[1] = A375.10 cells, BRAF V600E, 2 hours, inflection point, read-out: HiBiT-Degradation A375.10 BRAF 2 hours IP
[2] = A375.10 cells, BRAF V600E, 2 hours, read-out: HiBiT-Degradation A375.10 BRAF 2 hours DC50
[3] = A375.10 cells, BRAF V600E, 6 hours, inflection point, read-out: HiBiT-Degradation A375.10 BRAF 6 hours IP
[4] = A375.10 cells, BRAF V600E, 6 hours, read-out: HiBiT-Degradation A375.10 BRAF 6 hours DC50
[5] = A375.10 cells, BRAF V600E, 6 hours, residual protein remaining, read-out: HiBiT-Degradation A375.10 BRAF 6 hours Emax
[6] = A375.10 cells, HiBiT, BRAF V600E, 24 hours, read-out: HiBiT-Degradation A375.10 BRAF 24 hours DC50
[7] = A375.10 cells, HiBiT, BRAF V600E, 24 hours, read-out: HiBiT-Degradation A375.10 BRAF 24 hours Emax
[8] = A375.10 cells, HiBiT, BRAF V600E, 24 hours, read-out: HiBiT-Degradation A375.10 BRAF 24 hours IP
[9] = read-out: HiBiT-Degradation A375.10 BRAF 2 hours Emax, A375.10 cells, BRAF V600E, 2 hours, residual protein remaining
[10] = A375.10 cells, BRAF V600E, 2 hours, residual protein remaining, read-out: HiBiT-Degradation A375.10 BRAF 2 hours Emax
[11] = read-out: HiBiT-Degradation A375.10 BRAF 2 hours DC50, A375.10 cells, BRAF V600E, 2 hours
[12] = read-out: HiBiT-Degradation A375.10 BRAF 2 hours IP, A375.10 cells, BRAF V600E, 2 hours, inflection point

T1 sequence (P15056 whole entry V600E): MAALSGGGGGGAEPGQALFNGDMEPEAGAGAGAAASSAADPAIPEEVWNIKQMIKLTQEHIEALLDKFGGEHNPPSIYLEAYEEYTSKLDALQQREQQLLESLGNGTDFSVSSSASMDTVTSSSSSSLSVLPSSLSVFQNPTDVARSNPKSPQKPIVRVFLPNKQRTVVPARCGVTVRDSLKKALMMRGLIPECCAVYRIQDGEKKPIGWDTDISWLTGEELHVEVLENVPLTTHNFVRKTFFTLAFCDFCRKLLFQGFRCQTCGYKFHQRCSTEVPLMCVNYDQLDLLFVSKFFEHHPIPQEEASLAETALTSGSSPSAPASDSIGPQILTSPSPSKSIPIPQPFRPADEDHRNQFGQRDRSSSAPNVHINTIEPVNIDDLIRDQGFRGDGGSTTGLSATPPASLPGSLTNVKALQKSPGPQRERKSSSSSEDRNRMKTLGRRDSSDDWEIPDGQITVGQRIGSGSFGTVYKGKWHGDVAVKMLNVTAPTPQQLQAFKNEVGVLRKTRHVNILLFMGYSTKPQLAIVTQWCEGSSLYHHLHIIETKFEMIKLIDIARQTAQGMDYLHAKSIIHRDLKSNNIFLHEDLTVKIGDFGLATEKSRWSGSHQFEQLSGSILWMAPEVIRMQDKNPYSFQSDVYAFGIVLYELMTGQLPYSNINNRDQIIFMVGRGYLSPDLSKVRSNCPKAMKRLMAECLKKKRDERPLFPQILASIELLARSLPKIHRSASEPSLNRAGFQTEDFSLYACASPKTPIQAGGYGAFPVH
T1 sequence (Q96SW2 whole entry): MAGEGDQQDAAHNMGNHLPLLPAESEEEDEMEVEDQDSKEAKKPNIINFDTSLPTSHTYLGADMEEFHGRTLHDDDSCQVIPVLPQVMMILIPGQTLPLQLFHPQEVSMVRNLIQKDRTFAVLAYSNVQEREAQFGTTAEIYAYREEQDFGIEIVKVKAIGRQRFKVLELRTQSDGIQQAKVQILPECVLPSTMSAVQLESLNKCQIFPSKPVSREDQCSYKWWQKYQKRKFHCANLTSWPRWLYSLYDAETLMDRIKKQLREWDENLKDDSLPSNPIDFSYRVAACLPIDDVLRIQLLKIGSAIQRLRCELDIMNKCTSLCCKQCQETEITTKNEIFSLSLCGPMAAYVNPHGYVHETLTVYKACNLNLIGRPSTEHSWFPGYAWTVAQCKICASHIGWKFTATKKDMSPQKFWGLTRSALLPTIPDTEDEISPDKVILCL
T1 sequence (Q16531 whole entry partner): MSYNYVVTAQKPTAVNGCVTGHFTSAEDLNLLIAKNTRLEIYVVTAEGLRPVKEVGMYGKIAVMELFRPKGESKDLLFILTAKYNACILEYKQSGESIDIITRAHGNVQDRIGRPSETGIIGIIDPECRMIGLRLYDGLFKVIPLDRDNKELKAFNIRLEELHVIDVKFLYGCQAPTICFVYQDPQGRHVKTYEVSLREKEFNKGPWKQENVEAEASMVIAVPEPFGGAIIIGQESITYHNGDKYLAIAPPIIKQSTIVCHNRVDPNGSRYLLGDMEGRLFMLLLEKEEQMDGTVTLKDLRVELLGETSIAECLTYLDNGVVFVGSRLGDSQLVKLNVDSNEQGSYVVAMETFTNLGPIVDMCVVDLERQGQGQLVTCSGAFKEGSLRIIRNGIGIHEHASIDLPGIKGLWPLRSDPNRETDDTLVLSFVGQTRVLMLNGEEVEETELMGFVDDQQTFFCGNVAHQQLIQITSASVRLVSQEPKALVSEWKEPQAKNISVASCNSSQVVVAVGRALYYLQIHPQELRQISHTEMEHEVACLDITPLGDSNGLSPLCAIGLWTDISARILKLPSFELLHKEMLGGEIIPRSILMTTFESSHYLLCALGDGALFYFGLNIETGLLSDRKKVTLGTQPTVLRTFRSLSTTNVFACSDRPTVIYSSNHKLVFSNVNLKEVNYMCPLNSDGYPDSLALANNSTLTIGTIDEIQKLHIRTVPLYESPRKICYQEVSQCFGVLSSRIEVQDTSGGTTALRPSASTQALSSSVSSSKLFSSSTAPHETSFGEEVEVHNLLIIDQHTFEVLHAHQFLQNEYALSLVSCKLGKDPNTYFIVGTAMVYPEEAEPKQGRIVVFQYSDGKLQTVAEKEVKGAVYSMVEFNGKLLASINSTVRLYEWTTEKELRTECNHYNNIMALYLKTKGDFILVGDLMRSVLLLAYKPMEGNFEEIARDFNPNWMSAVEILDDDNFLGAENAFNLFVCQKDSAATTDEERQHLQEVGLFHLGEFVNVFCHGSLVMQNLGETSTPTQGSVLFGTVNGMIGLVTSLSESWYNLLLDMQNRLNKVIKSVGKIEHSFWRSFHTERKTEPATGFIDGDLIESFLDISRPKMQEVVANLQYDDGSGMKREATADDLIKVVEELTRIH

| SMILES | DC50 [1] [µM] | DC50 [2] [µM] | DC50 [3] [µM] | DC50 [4] [µM] | Emax [5] [%] | DC50 [6] [µM] | Emax [7] [%] | DC50 [8] [µM] | Emax [9] [%] | Emax [10] [%] | DC50 [11] [µM] | DC50 [12] [µM] | DC50 (read-out: HiBiT-Degradation A375.10 BRAF 6 hours DC50, A375.10 cells, BRAF V600E, 6 hours) [µM] | DC50 (read-out: HiBiT-Degradation A375.10 BRAF 6 hours IP, A375.10 cells, BRAF V600E, 6 hours, inflection point) [µM] | DC50 (read-out: HiBiT-Degradation A375.10 BRAF 24 hours DC50, A375.10 cells, HiBiT, BRAF V600E, 24 hours) [µM] | DC50 (read-out: HiBiT-Degradation A375.10 BRAF 24 hours IP, A375.10 cells, HiBiT, BRAF V600E, 24 hours) [µM] |
| --- | --- | --- | --- | --- | --- | --- | --- | --- | --- | --- | --- | --- | --- | --- | --- | --- |
| CCN(C)S(=O)(=O)Nc1ccc(F)c(Oc2ccc3ncn([C@@H]4COC5(CCN(C6CCC(c7cc8c(cc7F)c(N7CCC(=O)NC7=O)nn8C)CC6)CC5)C4)c(=O)c3c2F)c1C#N (single isomer, unassigned) [Compound 46] | < 1 | < 1 | < 1 | < 1 | < 50 | < 1 | < 50 | < 1 | < 50 | – | – | – | – | – | – | – |
| Cn1nc(N2CCC(=O)NC2=O)c2cc(F)c(N3CC4(CC(N5CCC6(CC5)C[C@@H](n5cnc7ccc(Oc8c(F)ccc(NS(=O)(=O)N9CC[C@@H](F)C9)c8C#N)cc7c5=O)CO6)C4)C3)cc21 [Compound 133, (3R)-N-[2-cyano-3-[3-[(3R)-8-[2-[3-(2,4-dioxohexahydropyrimidin-1-yl)-5-fluoro-1-methyl-indazol-6-yl]-2-azaspiro[3.3]heptan-6-yl]-1-oxa-8-azaspiro[4.5]decan-3-yl]-4-oxo-quinazolin-6-yl]oxy-4-fluoro-phenyl]-3-fluoro-pyrrolidine-1-sulfonamide] | < 1 | > 10 | < 1 | < 1 | < 50 | < 1 | < 50 | < 1 | 50 to 90 | – | – | – | – | – | – | – |
| CCN(C)S(=O)(=O)Nc1ccc(F)c(Oc2ccc3ncn([C@H]4COC5(CCN(C6CCC(c7ccc(N[C@H]8CCC(=O)NC8=O)cc7F)CC6)CC5)C4)c(=O)c3c2)c1C#N (single isomer, unassigned) [Compound 3] | < 1 | < 1 | < 1 | < 1 | < 50 | < 1 | < 50 | < 1 | – | < 50 | – | – | – | – | – | – |
| CC(C)S(=O)(=O)Nc1ccc(F)c(Oc2ccc3ncn([C@H]4COC5(CCN(C6CC7(C6)CN(c6cc8c(cc6F)c(N6CCC(=O)NC6=O)nn8C)C7)CC5)C4)c(=O)c3c2)c1C#N [Compound 134, N-[2-cyano-3-[3-[(3R)-8-[2-[3-(2,4-dioxohexahydropyrimidin-1-yl)-5-fluoro-1-methyl-indazol-6-yl]-2-azaspiro[3.3]heptan-6-yl]-1-oxa-8-azaspiro[4.5]decan-3-yl]-4-oxo-quinazolin-6-yl]oxy-4-fluoro-phenyl]propane-2-sulfonamide] | < 1 | < 1 | < 1 | < 1 | < 50 | < 1 | < 50 | < 1 | – | 50 to 90 | – | – | – | – | – | – |
| CC(C)S(=O)(=O)Nc1ccc(F)c(Oc2ccc3ncn([C@H]4COC5(CCN(C6CCC(c7cc8c(cc7F)c(N7CCC(=O)NC7=O)nn8C)CC6)CC5)C4)c(=O)c3c2)c1C#N (single isomer, unassigned) [Compound 87] | < 1 | < 1 | < 1 | < 1 | < 50 | < 1 | < 50 | < 1 | – | < 50 | – | – | – | – | – | – |
| CCN(C)S(=O)(=O)Nc1ccc(F)c(Oc2ccc3ncn([C@@H]4COC5(CCN(C6CCC(c7ccc(NC8CCC(=O)NC8=O)cc7F)CC6)CC5)C4)c(=O)c3c2F)c1C#N (single isomer, unassigned) [Compound 52] | < 1 | < 1 | < 1 | < 1 | < 50 | < 1 | < 50 | < 1 | – | < 50 | – | – | – | – | – | – |
| CN(CCO)S(=O)(=O)Nc1ccc(F)c(Oc2ccc3ncn([C@H]4COC5(CCN(C6CCC(c7cc8c(cc7F)c(N7CCC(=O)NC7=O)nn8C)CC6)CC5)C4)c(=O)c3c2)c1C#N (single isomer, unassigned) [Compound 73] | < 1 | < 1 | < 1 | < 1 | < 50 | < 1 | < 50 | < 1 | – | < 50 | – | – | – | – | – | – |
| COC1CN(S(=O)(=O)Nc2ccc(F)c(Oc3ccc4ncn([C@H]5COC6(CCN(C7CC8(C7)CN(c7cc9c(cc7F)c(N7CCC(=O)NC7=O)nn9C)C8)CC6)C5)c(=O)c4c3)c2C#N)C1 [Compound 246, N-[2-cyano-3-[3-[(3R)-8-[2-[3-(2,4-dioxohexahydropyrimidin-1-yl)-5-fluoro-1-methyl-indazol-6-yl]-2-azaspiro[3.3]heptan-6-yl]-1-oxa-8-azaspiro[4.5]decan-3-yl]-4-oxo-quinazolin-6-yl]oxy-4-fluoro-phenyl]-3-methoxy-azetidine-1-sulfonamide] | – | – | – | – | – | – | – | – | 50 to 90 | – | 1 to 10 | < 1 | – | – | – | – |
| Cn1nc(N2CCC(=O)NC2=O)c2cc(F)c(N3CC4(CC(N5CCC6(CC5)CC(n5cnc7ccc(Oc8c(F)ccc(NS(=O)(=O)C9CCC9)c8C#N)cc7c5=O)C6)C4)C3)cc21 [Compound 259, N-[2-cyano-3-[3-[7-[2-[3-(2,4-dioxohexahydropyrimidin-1-yl)-5-fluoro-1-methyl-indazol-6-yl]-2-azaspiro[3.3]heptan-6-yl]-7-azaspiro[3.5]nonan-2-yl]-4-oxo-quinazolin-6-yl]oxy-4-fluoro-phenyl]cyclobutanesulfonamide] | – | – | – | – | – | – | – | – | < 50 | – | < 1 | < 1 | – | – | – | – |
| Cn1nc(N2CCC(=O)NC2=O)c2cc(F)c(N3CC4(CC(N5CCC6(CC5)C[C@@H](n5cnc7ccc(Oc8c(F)ccc(NS(=O)(=O)N9CC%10(CCC%10)C9)c8C#N)cc7c5=O)CO6)C4)C3)cc21 [Compound 254, N-[2-cyano-3-[3-[(3R)-8-[2-[3-(2,4-dioxohexahydropyrimidin-1-yl)-5-fluoro-1-methyl-indazol-6-yl]-2-azaspiro[3.3]heptan-6-yl]-1-oxa-8-azaspiro[4.5]decan-3-yl]-4-oxo-quinazolin-6-yl]oxy-4-fluoro-phenyl]-2-azaspiro[3.3]heptane-2-sulfonamide] | < 1 | < 1 | – | – | – | – | – | – | 50 to 90 | – | – | – | – | – | – | – |
| CCN(C)S(=O)(=O)Nc1ccc(F)c(Oc2ccc3ncn(C4CC5(CCN(C6CCC(c7ccc(NC8CCC(=O)NC8=O)cc7F)CC6)CC5)C4)c(=O)c3c2)c1C#N (single isomer, unassigned) [Compound 6, 6-[2-cyano-3-[[ethyl(methyl)sulfamoyl]amino]-6-fluoro-phenoxy]-3-[7-[4-[4-[(2,6-dioxo-3-piperidyl)amino]-2-fluoro-phenyl]cyclohexyl]-7-azaspiro[3.5]nonan-2-yl]-4-oxo-quinazoline] | < 1 | < 1 | < 1 | < 1 | < 50 | < 1 | < 50 | < 1 | – | < 50 | – | – | – | – | – | – |
| CCN(C)S(=O)(=O)Nc1ccc(F)c(Oc2ccc3ncn(C4CC5(CCN(C6CCN(c7cc8c(cc7F)c(N7CCC(=O)NC7=O)nn8C)CC6)CC5)C4)c(=O)c3c2)c1C#N [Compound 156, 6-[2-cyano-3-[[ethyl(methyl)sulfamoyl]amino]-6-fluoro-phenoxy]-3-[7-[1-[3-(2,4-dioxohexahydropyrimidin-1-yl)-5-fluoro-1-methyl-indazol-6-yl]-4-piperidyl]-7-azaspiro[3.5]nonan-2-yl]-4-oxo-quinazoline] | < 1 | < 1 | < 1 | < 1 | < 50 | < 1 | < 50 | < 1 | < 50 | – | – | – | – | – | – | – |
| CN(CCO)S(=O)(=O)Nc1ccc(F)c(Oc2ccc3ncn(C4CC5(CCN(C6CC7(C6)CN(c6cc8c(cc6F)c(N6CCC(=O)NC6=O)nn8C)C7)CC5)C4)c(=O)c3c2)c1C#N (stereo not drawn) [Compound 151, 6-[2-cyano-6-fluoro-3-[[2-hydroxyethyl(methyl)sulfamoyl]amino]phenoxy]-3-[7-[2-[3-(2,4-dioxohexahydropyrimidin-1-yl)-5-fluoro-1-methyl-indazol-6-yl]-2-azaspiro[3.3]heptan-6-yl]-7-azaspiro[3.5]nonan-2-yl]-4-oxo-quinazoline] | – | – | – | – | < 50 | – | < 50 | – | – | 50 to 90 | 1 to 10 | < 1 | < 1 | < 1 | < 1 | < 1 |
